# PMC3229304 (2011)
# Target: KDM5B/JARID1B/PLU-1 (Homo sapiens, UniProt Q9UGL1)
# Assay: in vitro histone demethylase inhibition, Ki
# Format: biochemical
# KDM5B/JARID1B/PLU-1, sequence (Q9UGL1 whole entry): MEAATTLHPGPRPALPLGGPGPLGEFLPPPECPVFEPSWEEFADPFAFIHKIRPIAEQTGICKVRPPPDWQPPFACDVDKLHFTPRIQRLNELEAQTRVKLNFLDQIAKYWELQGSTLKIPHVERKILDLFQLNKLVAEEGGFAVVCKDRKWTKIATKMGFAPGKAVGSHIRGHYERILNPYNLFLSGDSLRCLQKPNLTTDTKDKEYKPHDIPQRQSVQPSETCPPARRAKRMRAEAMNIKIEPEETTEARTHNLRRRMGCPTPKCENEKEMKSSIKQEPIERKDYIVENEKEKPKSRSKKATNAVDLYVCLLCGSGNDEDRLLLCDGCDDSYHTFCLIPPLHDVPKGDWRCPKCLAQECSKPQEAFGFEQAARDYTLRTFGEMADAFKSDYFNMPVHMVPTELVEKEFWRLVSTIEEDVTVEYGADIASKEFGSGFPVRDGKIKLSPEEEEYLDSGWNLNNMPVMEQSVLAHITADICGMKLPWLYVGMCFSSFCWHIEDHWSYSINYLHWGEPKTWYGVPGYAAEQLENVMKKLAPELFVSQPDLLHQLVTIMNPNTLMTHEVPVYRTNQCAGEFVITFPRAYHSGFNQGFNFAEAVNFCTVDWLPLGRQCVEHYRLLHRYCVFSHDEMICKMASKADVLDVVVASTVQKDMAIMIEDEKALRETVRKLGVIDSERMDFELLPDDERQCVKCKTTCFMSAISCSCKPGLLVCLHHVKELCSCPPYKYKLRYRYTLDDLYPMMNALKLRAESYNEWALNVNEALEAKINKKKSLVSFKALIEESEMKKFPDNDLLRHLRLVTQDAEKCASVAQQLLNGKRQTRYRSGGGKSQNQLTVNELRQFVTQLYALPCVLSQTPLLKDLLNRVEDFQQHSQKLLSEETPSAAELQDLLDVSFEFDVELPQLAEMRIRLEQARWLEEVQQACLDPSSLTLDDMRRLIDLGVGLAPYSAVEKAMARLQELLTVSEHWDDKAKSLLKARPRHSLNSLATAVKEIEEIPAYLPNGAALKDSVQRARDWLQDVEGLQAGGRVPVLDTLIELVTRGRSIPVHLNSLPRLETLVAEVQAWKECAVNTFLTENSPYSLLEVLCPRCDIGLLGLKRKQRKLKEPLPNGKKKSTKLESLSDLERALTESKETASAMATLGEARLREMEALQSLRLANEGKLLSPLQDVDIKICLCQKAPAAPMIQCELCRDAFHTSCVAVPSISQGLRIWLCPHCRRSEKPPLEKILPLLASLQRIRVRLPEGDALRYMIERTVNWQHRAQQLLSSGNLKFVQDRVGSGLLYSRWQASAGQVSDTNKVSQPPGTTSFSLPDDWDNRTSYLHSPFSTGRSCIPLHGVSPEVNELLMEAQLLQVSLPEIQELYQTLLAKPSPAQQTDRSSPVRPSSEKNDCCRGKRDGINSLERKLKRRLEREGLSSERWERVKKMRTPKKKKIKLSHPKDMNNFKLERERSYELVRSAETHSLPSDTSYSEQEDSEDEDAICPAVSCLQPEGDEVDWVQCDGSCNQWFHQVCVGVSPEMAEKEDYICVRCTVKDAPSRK
smiles,measurement,value
O=C(O)CNC(=O)C(=O)O [N-oxalylglycine],Ki,653 ± 128 µM
